The assay deals with CDK2/Cyclin E1 (Homo sapiens (Human), UniProt P24941). The assay is described as follows: CDK2/Cyclin E1 HTRF enzyme activity assay. The assay is classed as biochemical. Conditions: 1 mM ATP; CDK2/Cyclin E1 0.25 nM; 60 minutes at room temperature. In outline: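 HTRF read-out of 4E-BP1 (Thr37/46) peptide phosphorylation (ULight peptide 50 nM) by 0.25 nM baculovirus-made GST-CDK2/FLAG-Cyclin E1, with ATP at 50 μM or 1 mM, 60 min at room temperature, pH 7.5. Eu-anti-phospho antibody with EDTA quench; IC50 fitted by three- or four-parameter dose-response.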
(In general: Time-resolved FRET reads energy transfer from a long-lived donor to a nearby acceptor.)
Molecule `C[C@@H]1CN(S(C)(=O)=O)CC[C@@H]1Nc1nc2ccc(-c3cn[nH]c3)c(OCC(F)F)n2n1` [Example 72, 5-(2,2-Difluoroethoxy)-N-((3R,4S)-3-methyl-1-(methylsulfonyl)piperidin-4-yl)-6-(1H-pyrazol-4-yl)-[1,2,4]triazolo[1,5-a]pyridin-2-amine] registered an IC50 of no more than 20 nM.
Consider `C[C@@H]1CN(S(C)(=O)=O)CC[C@@H]1Nc1nc2ccc(-c3cn[nH]c3)c(OCC(F)(F)C(F)F)n2n1` [Example 73, N-((3R,4S)-3-Methyl-1-(methylsulfonyl)piperidin-4-yl)-6-(1H-pyrazol-4-yl)-5-(2,2,3,3-tetrafluoropropoxy)-[1,2,4]triazolo[1,5-a]pyridin-2-amine], for which the IC50 is no more than 20 nM.
In turn, `C[C@@H]1CN(S(C)(=O)=O)CC[C@@H]1Nc1nc2ccc(-c3cn[nH]c3)c(OC3CC3)n2n1` [Example 74, 5-Cyclopropoxy-N-((3R,4S)-3-methyl-1-(methylsulfonyl)piperidin-4-yl)-6-(1H-pyrazol-4-yl)-[1,2,4]triazolo[1,5-a]pyridin-2-amine] had an IC50 of no more than 20 nM.
Next, `C[C@@H]1CN(S(C)(=O)=O)CC[C@@H]1Nc1nc2ccc(-c3cn[nH]c3)c(OC3CCC(F)(F)C3)n2n1` (stereo partly drawn) [Example 75, 5-((3,3-Difluorocyclopentyl)oxy)-N-((3R,4S)-3-methyl-1-(methylsulfonyl)piperidin-4-yl)-6-(1H-pyrazol-4-yl)-[1,2,4]triazolo[1,5-a]pyridin-2-amine]: no more than 20 nM; `C[C@@H]1CN(S(C)(=O)=O)CC[C@@H]1Nc1nc2ccc(-c3cn[nH]c3)c(OCC3CCC3)n2n1` [Example 76, 5-(Cyclobutylmethoxy)-N-((3R,4S)-3-methyl-1-(methylsulfonyl)piperidin-4-yl)-6-(1H-pyrazol-4-yl)-[1,2,4]triazolo[1,5-a]pyridin-2-amine]: no more than 20 nM; `C[C@@H]1CN(S(C)(=O)=O)CC[C@@H]1Nc1nc2ccc(-c3cn[nH]c3)c(OCC3CCCC3)n2n1` [Example 77, 5-(Cyclopentylmethoxy)-N-((3R,4S)-3-methyl-1-(methylsulfonyl)piperidin-4-yl)-6-(1H-pyrazol-4-yl)-[1,2,4]triazolo[1,5-a]pyridin-2-amine]: no more than 20 nM.
`CCCOc1c(-c2cn[nH]c2)ccc2nc(NC3CCN(S(C)(=O)=O)CC3)nn12` [Example 78, N-(1-(Methylsulfonyl)piperidin-4-yl)-5-propoxy-6-(1H-pyrazol-4-yl)-[1,2,4]triazolo[1,5-a]pyridin-2-amine] gave an IC50 of no more than 20 nM.
`CC(C)COc1c(-c2cn[nH]c2)ccc2nc(NC3CCN(S(C)(=O)=O)CC3)nn12` [Example 79, 5-Isobutoxy-N-(1-(methylsulfonyl)piperidin-4-yl)-6-(1H-pyrazol-4-yl)-[1,2,4]triazolo[1,5-a]pyridin-2-amine] gave an IC50 of no more than 20 nM.
Next, `CS(=O)(=O)N1CCC(Nc2nc3ccc(-c4cn[nH]c4)c(OCC(F)F)n3n2)CC1` [Example 80, 5-(2,2-Difluoroethoxy)-N-(1-(methylsulfonyl)piperidin-4-yl)-6-(1H-pyrazol-4-yl)-[1,2,4]triazolo[1,5-a]pyridin-2-amine]: no more than 20 nM.
In the case of `CS(=O)(=O)N1CCC(Nc2nc3ccc(-c4cn[nH]c4)c(OCC(F)(F)C(F)F)n3n2)CC1` [Example 81, N-(1-(Methylsulfonyl)piperidin-4-yl)-6-(1H-pyrazol-4-yl)-5-(2,2,3,3-tetrafluoropropoxy)-[1,2,4]triazolo[1,5-a]pyridin-2-amine], the IC50 was no more than 20 nM.
`CS(=O)(=O)N1CCC(Nc2nc3ccc(-c4cn[nH]c4)c(OCC4CC4)n3n2)CC1` [Example 82, 5-(Cyclopropylmethoxy)-N-(1-(methylsulfonyl)piperidin-4-yl)-6-(1H-pyrazol-4-yl)-[1,2,4]triazolo[1,5-a]pyridin-2-amine] registered an IC50 of no more than 20 nM.
Under `C[C@@H]1CN(S(C)(=O)=O)CC[C@@H]1Nc1nc2ccc(-c3cn[nH]c3)c(N3CCCCC3)n2n1` [Example 83, N-((3R,4S)-3-Methyl-1-(methylsulfonyl)piperidin-4-yl)-5-(piperidin-1-yl)-6-(1H-pyrazol-4-yl)-[1,2,4]triazolo[1,5-a]pyridin-2-amine] stands no more than 20 nM.
Under `CCS(=O)(=O)N1CC[C@H](Nc2nc3ccc(-c4cn[nH]c4)c(N4CCCCC4)n3n2)[C@H](C)C1` [Example 84, N-((3R,4S)-1-(Ethylsulfonyl)-3-methylpiperidin-4-yl)-5-(piperidin-1-yl)-6-(1H-pyrazol-4-yl)-[1,2,4]triazolo[1,5-a]pyridin-2-amine] stands no more than 20 nM.
The molecule `C[C@@H]1CN(S(=O)(=O)C2CC2)CC[C@@H]1Nc1nc2ccc(-c3cn[nH]c3)c(N3CCCCC3)n2n1` [Example 85, N-((3R,4S)-1-(Cyclopropylsulfonyl)-3-methylpiperidin-4-yl)-5-(piperidin-1-yl)-6-(1H-pyrazol-4-yl)-[1,2,4]triazolo[1,5-a]pyridin-2-amine] came in with an IC50 of no more than 20 nM.
Next, `C[C@@H]1CN(S(=O)(=O)c2cn(C)cn2)CC[C@@H]1Nc1nc2ccc(-c3cn[nH]c3)c(N3CCCCC3)n2n1` [Example 86, N-((3R,4S)-3-Methyl-1-((1-methyl-1H-imidazol-4-yl)sulfonyl)piperidin-4-yl)-5-(piperidin-1-yl)-6-(1H-pyrazol-4-yl)-[1,2,4]triazolo[1,5-a]pyridin-2-amine]: no more than 20 nM; `CC(C)Oc1c(-c2cn[nH]c2)ncc2nc(N[C@H]3CCN(S(C)(=O)=O)C[C@H]3C)nn12` [Example 87, 5-Isopropoxy-N-((3R,4S)-3-methyl-1-(methylsulfonyl)piperidin-4-yl)-6-(1H-pyrazol-4-yl)-[1,2,4]triazolo[1,5-a]pyrazin-2-amine]: no more than 20 nM.
In turn, `CCS(=O)(=O)N1CC[C@H](Nc2nc3cnc(-c4cn[nH]c4)c(OC(C)C)n3n2)[C@H](C)C1` [Example 88, N-((3R,4S)-1-(Ethylsulfonyl)-3-methylpiperidin-4-yl)-5-isopropoxy-6-(1H-pyrazol-4-yl)-[1,2,4]triazolo[1,5-a]pyrazin-2-amine] showed an IC50 of no more than 20 nM.
Next, `CC(C)Oc1c(-c2cn[nH]c2)ncc2nc(N[C@H]3CCN(S(=O)(=O)C4CC4)C[C@H]3C)nn12` [Example 89, N-((3R,4S)-1-(Cyclopropylsulfonyl)-3-methylpiperidin-4-yl)-5-isopropoxy-6-(1H-pyrazol-4-yl)-[1,2,4]triazolo[1,5-a]pyrazin-2-amine]: no more than 20 nM.
Under `C[C@@H]1CN(S(C)(=O)=O)CC[C@@H]1Nc1nc2cnc(-c3cn[nH]c3)c(OC3CCOCC3)n2n1` [Example 90] stands no more than 20 nM.
Molecule `CCS(=O)(=O)N1CC[C@H](Nc2nc3cnc(-c4cn[nH]c4)c(OC4CCOCC4)n3n2)[C@H](C)C1` [Example 91, N-((3R,4S)-1-(Ethylsulfonyl)-3-methylpiperidin-4-yl)-6-(1H-pyrazol-4-yl)-5-((tetrahydro-2H-pyran-4-yl)oxy)-[1,2,4]triazolo[1,5-a]pyrazin-2-amine] had an IC50 of no more than 20 nM.
Next, `C[C@@H]1CN(S(=O)(=O)C2CC2)CC[C@@H]1Nc1nc2cnc(-c3cn[nH]c3)c(OC3CCOCC3)n2n1` [Example 92, N-((3R,4S)-1-(Cyclopropylsulfonyl)-3-methylpiperidin-4-yl)-6-(1H-pyrazol-4-yl)-5-((tetrahydro-2H-pyran-4-yl)oxy)-[1,2,4]triazolo[1,5-a]pyrazin-2-amine]: no more than 20 nM; `CCS(=O)(=O)N1CC[C@H](Nc2nc3cnc(-c4cn[nH]c4)c(OC4CCC4)n3n2)[C@H](C)C1` [Example 93, 5-Cyclobutoxy-N-((3R,4S)-1-(ethylsulfonyl)-3-methylpiperidin-4-yl)-6-(1H-pyrazol-4-yl)-[1,2,4]triazolo[1,5-a]pyrazin-2-amine]: no more than 20 nM.
Next, `C[C@@H]1CN(S(=O)(=O)c2cnn(C)c2)CC[C@@H]1Nc1nc2cnc(-c3cn[nH]c3)c(OC3CCC3)n2n1` [Example 94, 5-Cyclobutoxy-N-((3R,4S)-3-methyl-1-((1-methyl-1H-pyrazol-4-yl)sulfonyl)piperidin-4-yl)-6-(1H-pyrazol-4-yl)-[1,2,4]triazolo[1,5-a]pyrazin-2-amine]: no more than 20 nM; `C[C@@H]1CN(S(=O)(=O)c2cn(C)cn2)CC[C@@H]1Nc1nc2cnc(-c3cn[nH]c3)c(OC3CCC3)n2n1` [Example 95, 5-Cyclobutoxy-N-((3R,4S)-3-methyl-1-((1-methyl-1H-imidazol-4-yl)sulfonyl)piperidin-4-yl)-6-(1H-pyrazol-4-yl)-[1,2,4]triazolo[1,5-a]pyrazin-2-amine]: no more than 20 nM.
Take `CCS(=O)(=O)N1CC[C@H](Nc2nc3ccc(-c4cn[nH]c4)c(OC(C)C)n3n2)[C@H](C)C1` [Example 96, N-((3R,4S)-1-(Ethylsulfonyl)-3-methylpiperidin-4-yl)-5-isopropoxy-6-(1H-pyrazol-4-yl)-[1,2,4]triazolo[1,5-a]pyridin-2-amine]: the IC50 was no more than 20 nM.
Next, `CC(C)Oc1c(-c2cn[nH]c2)ccc2nc(N[C@H]3CCN(S(=O)(=O)C4CC4)C[C@H]3C)nn12` [Example 97, N-((3R,4S)-1-(Cyclopropylsulfonyl)-3-methylpiperidin-4-yl)-5-isopropoxy-6-(1H-pyrazol-4-yl)-[1,2,4]triazolo[1,5-a]pyridin-2-amine]: no more than 20 nM.
`C[C@@H]1CN(S(C)(=O)=O)CC[C@@H]1Nc1nc2ccc(-c3cn[nH]c3)c(OC3CCOCC3)n2n1` [Example 98, N-((3R,4S)-3-Methyl-1-(methylsulfonyl)piperidin-4-yl)-6-(1H-pyrazol-4-yl)-5-((tetrahydro-2H-pyran-4-yl)oxy)-[1,2,4]triazolo[1,5-a]pyridin-2-amine]: the IC50 is no more than 20 nM.
Next, `C[C@@H]1CN(S(=O)(=O)c2cnn(C)c2)CC[C@@H]1Nc1nc2ccc(-c3cn[nH]c3)c(OC3CCOCC3)n2n1` [Example 99, N-((3R,4S)-3-Methyl-1-((1-methyl-1H-pyrazol-4-yl)sulfonyl)piperidin-4-yl)-6-(1H-pyrazol-4-yl)-5-((tetrahydro-2H-pyran-4-yl)oxy)-[1,2,4]triazolo[1,5-a]pyridin-2-amine]: no more than 20 nM.

Broadly, the IC50 is the point on the concentration scale where inhibition reaches its midpoint. A higher IC50 goes with weaker potency in that assay.
